These results are taken from US6893654B2, “Two-stage transmucosal medicine delivery system for symptom relief” (priority 1998, dated 2005).

For the data set the following is noted: solution at pH 8.0.

As for `CN1CCCC1c1cccnc1` (stereo not shown) [nicotine], the “portion of nicotine unionized and free to be absorbed” value is recorded as “fifty”.
